According to ChEMBL document CHEMBL5032491, “New Dibenzoquinoxalines Inhibit Triple-Negative Breast Cancer Growth by Dual Targeting of Topoisomerase 1 and the c-MYC G-Quadruplex” (J Med Chem, 2021):
The source made the active and inactive calls. The calls are words filed in the database; no cut-off is given here.

Key:
[1] = tested on: MDA-MB-231; assay: Induction of cell cycle arrest in human MDA-MB-231 cells assessed as accumulation at sub-G1 phase at 2 uM incubated for 24 hrs by flow cytometry (reference value: 2.8%); assay type: functional
[2] = tested on: MDA-MB-231; assay: Inhibition of VEGF gene transcription expression in human MDA-MB-231 cells at 0.5 to 2 uM incubated for 24 hrs by RT-PCR analysis; assay type: functional, cell-based; conditions: dose 0.5-2 µM
[3] = tested on: MDA-MB-231; assay: Inhibition of cell migration in human MDA-MB-231 cells incubated for 24 hrs by wound scrape assay; assay type: functional, cell-based
[4] = tested on: MDA-MB-231; assay: Induction of cell cycle arrest in human MDA-MB-231 cells assessed as accumulation at G2/M phase at 1 uM incubated for 24 hrs by flow cytometry (reference value: 20.4%); assay type: functional
[5] = tested on: Quadruplex DNA; assay: Binding affinity to c-myc G4-quadruplex DNA (unknown origin) at 1 uM in presence of ct-DNA by fluorescence spectroscopy; assay type: nucleic-acid assay
[6] = tested on: MDA-MB-231; assay: Induction of cell cycle arrest in human MDA-MB-231 cells assessed as accumulation at S phase at 1 uM incubated for 24 hrs by flow cytometry (reference value: 19.2%); assay type: functional
[7] = tested on: CA46; assay: Downregulation of c-MYC transcription expression in human CA46 cells incubated for 24 hrs by RT-PCR analysis; assay type: functional, cell-based
[8] = tested on: Quadruplex DNA; assay: Inhibition of c-myc G4-quadruplex DNA transcriptional activity in human MDA-MB-231 cells incubated for 24 hrs by RT-PCR analysis; assay type: cell-based
[9] = molecular target: T1, DNA topoisomerase 1 (Homo sapiens) (UniProt P11387); assay: Inhibition of human topoisomerase 1 mediated relaxation of supercoiled pHOT1 DNA at 5 to 20 uM incubated for 30 mins by agarose gel electrophoresis; conditions: dose 5-20 µM
T1 sequence (whole entry): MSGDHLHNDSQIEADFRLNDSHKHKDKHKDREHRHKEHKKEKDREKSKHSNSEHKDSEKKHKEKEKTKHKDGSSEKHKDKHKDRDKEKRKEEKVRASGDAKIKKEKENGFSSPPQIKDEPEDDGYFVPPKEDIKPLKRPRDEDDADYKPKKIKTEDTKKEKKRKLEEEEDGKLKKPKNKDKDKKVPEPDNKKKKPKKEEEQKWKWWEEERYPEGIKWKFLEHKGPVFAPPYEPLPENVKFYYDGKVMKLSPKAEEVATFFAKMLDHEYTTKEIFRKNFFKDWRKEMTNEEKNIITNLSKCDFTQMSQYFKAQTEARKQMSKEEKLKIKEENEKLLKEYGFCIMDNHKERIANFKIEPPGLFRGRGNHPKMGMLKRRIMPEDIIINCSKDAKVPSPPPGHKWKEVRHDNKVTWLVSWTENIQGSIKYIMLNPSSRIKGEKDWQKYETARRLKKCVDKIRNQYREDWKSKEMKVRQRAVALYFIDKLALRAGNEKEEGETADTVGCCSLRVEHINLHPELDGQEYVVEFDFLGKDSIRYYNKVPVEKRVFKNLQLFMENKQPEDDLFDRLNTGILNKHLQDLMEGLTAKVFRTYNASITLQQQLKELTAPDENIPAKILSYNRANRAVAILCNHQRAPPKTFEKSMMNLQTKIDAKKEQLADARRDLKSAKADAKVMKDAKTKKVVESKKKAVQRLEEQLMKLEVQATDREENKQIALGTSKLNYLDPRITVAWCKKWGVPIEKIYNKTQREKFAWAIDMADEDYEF

[10] = tested on: MDA-MB-231; assay: Induction of cell cycle arrest in human MDA-MB-231 cells assessed as accumulation at G0/G1 phase at 0.5 uM incubated for 24 hrs by flow cytometry (reference value: 56.6%); assay type: functional
[11] = tested on: MDA-MB-231; assay: Induction of cell cycle arrest in human MDA-MB-231 cells assessed as accumulation at G2/M phase at 2 uM incubated for 24 hrs by flow cytometry (reference value: 20.4%); assay type: functional
[12] = Antiproliferative activity against human BJ fibroplast assessed as inhibition of cell growth incubated for 24 hrs by CCK8 assay; conditions: Fibroblast
[13] = tested on: MDA-MB-231; assay: Inhibition of c-Myc gene transcription expression in human MDA-MB-231 cells at 0.5 to 2 uM incubated for 24 hrs by RT-PCR analysis; assay type: functional, cell-based; conditions: dose 0.5-2 µM
[14] = tested on: MDA-MB-231; assay: Induction of DNA damage in human MDA-MB-231 cells assessed as increase in gammaH2AX incubated for 24 hrs by western blotting analysis; assay type: functional, cell-based
[15] = tested on: Calf thymus DNA; assay: Binding affinity to duplex calf thymus DNA assessed as dissociation constant; assay type: nucleic-acid assay, Bos taurus
[16] = tested on: MDA-MB-231; assay: Antiproliferative activity against human MDA-MB-231 cells assessed as inhibition of cell growth incubated for 24 hrs by CCK8 assay; assay type: functional, cell-based
[17] = tested on: Calf thymus DNA; assay: Binding affinity to duplex calf thymus DNA assessed as dissociation constant by fluorescence spectroscopy; assay type: nucleic-acid assay, Bos taurus
[18] = tested on: MDA-MB-231; assay: Induction of cell cycle arrest in human MDA-MB-231 cells assessed as accumulation at sub-G1 phase at 1 uM incubated for 24 hrs by flow cytometry (reference value: 2.8%); assay type: functional
[19] = tested on: MDA-MB-231; assay: Antiproliferative activity against human MDA-MB-231 cells assessed as inhibition in cell growth at 2.5 uM incubated for 24 hrs by CCK8 assay; assay type: functional, cell-based
[20] = tested on: MDA-MB-231; assay: Inhibition of c-Myc protein expression in human MDA-MB-231 cells at 0.5 to 2 uM incubated for 24 hrs by Western blot analysis; assay type: functional, cell-based; conditions: dose 0.5-2 µM
[21] = molecular target: Quadruplex DNA; assay: Binding affinity to c-myc G4-quadruplex DNA (unknown origin) assessed as dissociation constant by fluorescence spectroscopy; assay type: nucleic-acid assay
[22] = tested on: Quadruplex DNA; assay: Binding affinity to c-myc G4-quadruplex DNA (unknown origin) by UV-Vis spectrophotometric method; assay type: nucleic-acid assay
[23] = tested on: MDA-MB-231; assay: Induction of cell cycle arrest in human MDA-MB-231 cells assessed as accumulation at G0/G1 phase at 1 uM incubated for 24 hrs by flow cytometry (reference value: 56.6%); assay type: functional
[24] = tested on: MDA-MB-231; assay: Induction of cell cycle arrest in human MDA-MB-231 cells assessed as accumulation at S phase at 2 uM incubated for 24 hrs by flow cytometry (reference value: 19.2%); assay type: functional
[25] = molecular target: T1, DNA topoisomerase 1 (Homo sapiens); assay: Inhibition of human topoisomerase 1 assessed as DNA intercalation at 1.2 to 10 uM using relaxed pHOT-1 DNA as substrate preincubated with DNA for 10 mins followed by enzyme addition and measured after 30 mins by agarose gel electrophoresis; conditions: dose 1.2-10 µM, time 40.0 min
[26] = tested on: MDA-MB-231; assay: Induction of cell cycle arrest in human MDA-MB-231 cells assessed as accumulation at S phase at 0.5 uM incubated for 24 hrs by flow cytometry (reference value: 19.2%); assay type: functional
[27] = tested on: MDA-MB-231; assay: Inhibition of BCL-2 gene transcription expression in human MDA-MB-231 cells at 0.5 to 2 uM incubated for 24 hrs by RT-PCR analysis; assay type: functional, cell-based; conditions: dose 0.5-2 µM
[28] = tested on: MDA-MB-231; assay: Antitumor activity against human MDA-MB-231 cells xenografted in BALB/c mouse assessed as tumor growth inhibition measured at 2.5 mg/kg, ip administered every other day for 20 days; assay type: functional; conditions: MDA-MB-231, ip, 480 h, time 20 day, read-out: TGI
[29] = tested on: Quadruplex DNA; assay: Binding affinity to c-myc G4-quadruplex DNA Pu22 (unknown origin) by NMR spectroscopy; assay type: nucleic-acid assay
[30] = tested on: CA46; assay: Downregulation of EXON 1 transcription in human CA46 cells incubated for 24 hrs by RT-PCR analysis; assay type: functional, cell-based

## COc1ccc2nc3c4ccc(N5CCN(C)CC5)cc4c4cc(N5CCN(C)CC5)ccc4c3nc2c1
[1]
  Activity: 20.2%
[2]
  inhibition: inactive
[3]
  inhibition: Active
[4]
  Activity: 24.9%
[5]
  Activity: Active
[6]
  Activity: 20.4%
[7]
  Activity: inactive
[8]
  inhibition: Active
[9]
  inhibition: Active
[10]
  Activity: 54.4%
[11]
  Activity: 21.2%
[12]
  IC50: 5.6 µM
[13]
  inhibition: Active
[14]
  Activity: Active
[15]
  Kd: 8.3 µM
[16]
  Activity: Dose-Dependent Effect
[17]
  Kd: 12.7 µM
[18]
  Activity: 4.7%
[19]
  Activity: Active
[20]
  inhibition: inactive
[21]
  Kd: 0.6 µM
[22]
  Activity: Active
[23]
  Activity: 50%
[24]
  Activity: 16.6%
[25]
  inhibition: Active
[26]
  Activity: 20.3%
[27]
  inhibition: inactive
[28]
  inhibition in vivo at 2.5 mg/kg: 52%
[29]
  Activity: Active
[30]
  Activity: Active
